The source of these data is US4452986A, “Imidazolyl-substituted benzofurans” (The Upjohn Company, priority 1982, dated 1984).

Where a name gives a salt, the structure may show the parent alone.

The target in this assay is T1, TXA2 synthetase (human platelet microsomes) (Homo sapiens, UniProt P24557).
T1 construct: human platelet microsomes (HPM); from tissue; host or cells: human platelets (microsomes)
T1 sequence (P24557 1-533): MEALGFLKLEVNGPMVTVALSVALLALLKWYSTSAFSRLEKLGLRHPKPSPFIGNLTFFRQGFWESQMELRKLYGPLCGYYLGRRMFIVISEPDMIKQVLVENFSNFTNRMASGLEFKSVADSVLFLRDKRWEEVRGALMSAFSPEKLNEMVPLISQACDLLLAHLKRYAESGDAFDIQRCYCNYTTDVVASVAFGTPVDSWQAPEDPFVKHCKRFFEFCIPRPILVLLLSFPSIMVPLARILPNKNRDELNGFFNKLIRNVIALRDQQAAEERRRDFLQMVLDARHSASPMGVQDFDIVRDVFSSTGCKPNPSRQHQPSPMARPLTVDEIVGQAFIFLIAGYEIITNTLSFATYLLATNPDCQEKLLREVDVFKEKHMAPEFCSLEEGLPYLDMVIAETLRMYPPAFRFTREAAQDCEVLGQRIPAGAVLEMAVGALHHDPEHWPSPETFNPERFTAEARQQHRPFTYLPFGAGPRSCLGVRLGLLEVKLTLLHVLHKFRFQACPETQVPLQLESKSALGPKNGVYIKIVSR
In words: TXA2 inhibition test: TXA2 generated from PGH2 with human platelet microsomes, response of superfused rabbit aortic strips. It counts as biochemical. Conditions: human platelet microsomes + PGH2, rabbit aorta bioassay. How it is done:
The compounds of the present invention were tested for TXA2 inhibition as follows:
Rabbit aortic strips were superfused in series with Krebs solution. Thromboxane A2 (TXA2) was generated by mixing prostaglandin H2 (PGH2) with human platelet microsomes (HPM).
Potential inhibitors were tested by comparing the response of the rabbit aorta to the amount of TXA2 produced by mixing PGH2 and HPM without the test compound in the reaction medium and then the amount of TXA2 produced when the test compound was added to the HPM 5 minutes before the HPM was mixed with PGH2. […] For a discussion of TXA2 synthetase inhibition testing see, e.g., R. Gorman, supra.

As for `O=C(O)c1cc2cc(Cn3ccnc3)ccc2o1` [Example 3, 5-N-Imidazolylmethyl-benzofuran-2-carboxylic Acid, Sodium Salt], the “effectiveness in inhibiting TXA2 formation (rank among tested compounds)” value is listed as “most effective”.
